pIC50: −log10 of the molar value. Converted amounts (≈) assume the structure as drawn.
Columns and labels:
[1] = Equilibrium aqueous solubility of the compound at pH 7.5 after 20 hrs by HPLC method; type: physicochemical
[2] = Oral bioavailability in CD-1 mouse at 10 mg/kg by LC-MS/MS method; type: ADME, organism-based; conditions: in vivo
MDA-MB-231 = assay: Cytotoxicity against human MDA-MB-231 cells assessed as growth inhibition using regular folate media after 7 days by Alamar blue assay; type: functional; conditions: MDA-MB-231, 168 h
Mus musculus [3] = assay: Unbound Cmax in CD-1 mouse at 10 mg/kg, po by LC-MS/MS method; type: ADME, organism-based; conditions: in vivo
Mus musculus [4] = assay: In vivo inhibition of AICARFT in tumor of low folate diet fed nude mouse xenografted with human NCI-H460 cells assessed as increase in circulating AICAr levels at 0.3 to 30 mg/kg after 4 hrs relative to vehicle-treated control; type: functional
[5] = target: T1, Bifunctional methylenetetrahydrofolate dehydrogenase/cyclohydrolase, mitochondrial (Homo sapiens, UniProt P13995); assay: Inhibition of MTHFD2 (unknown origin) using NAD/5,10-methylene THF as substrate after 30 mins by HPLC method
T1 sequence (P13995 whole entry): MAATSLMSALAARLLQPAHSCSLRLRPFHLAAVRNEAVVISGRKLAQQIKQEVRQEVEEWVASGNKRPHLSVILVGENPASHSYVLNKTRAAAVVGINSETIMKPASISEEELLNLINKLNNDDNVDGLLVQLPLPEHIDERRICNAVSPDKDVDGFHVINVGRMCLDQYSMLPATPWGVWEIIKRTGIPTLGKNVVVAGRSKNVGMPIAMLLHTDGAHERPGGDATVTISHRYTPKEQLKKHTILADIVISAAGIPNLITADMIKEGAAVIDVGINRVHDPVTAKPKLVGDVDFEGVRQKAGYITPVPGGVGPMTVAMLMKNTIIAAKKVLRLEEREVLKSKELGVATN

[6] = target: T2, Bifunctional methylenetetrahydrofolate dehydrogenase/cyclohydrolase 2, mitochondrial (Homo sapiens, UniProt Q9H903); assay: Inhibition of MTHFD2L (unknown origin) using NAD/5,10-methylene THF as substrate after 2 hrs by HPLC method
T2 sequence (Q9H903 whole entry): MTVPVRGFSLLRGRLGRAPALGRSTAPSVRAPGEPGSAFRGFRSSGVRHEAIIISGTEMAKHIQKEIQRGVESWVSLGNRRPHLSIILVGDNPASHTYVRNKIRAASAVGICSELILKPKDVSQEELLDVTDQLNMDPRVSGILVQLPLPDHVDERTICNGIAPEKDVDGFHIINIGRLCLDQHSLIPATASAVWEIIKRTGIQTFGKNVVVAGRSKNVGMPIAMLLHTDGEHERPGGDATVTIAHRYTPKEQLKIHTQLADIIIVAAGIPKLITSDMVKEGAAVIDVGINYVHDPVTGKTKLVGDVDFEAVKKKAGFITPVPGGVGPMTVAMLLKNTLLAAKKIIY

[7] = Drug metabolism in microsomes (unknown origin); type: ADME, Microsome; conditions: read-out: Drug metabolism
CYP3A4 = CYP3A4 (Homo sapiens, UniProt P08684); assay: Inhibition of human CYP3A4 at 10 uM relative to control; type: ADME
CYP2D6 = CYP2D6 (Homo sapiens, UniProt P10635); assay: Inhibition of human CYP2D6 at 10 uM relative to control; type: ADME
CYP2C9 = CYP2C9 (Homo sapiens, UniProt P11712); assay: Inhibition of human CYP2C9 at 10 uM relative to control; type: ADME
[8] = Antiproliferative activity against human MDA-MB-231met2 cells by Alamar blue assay; type: functional, cell-based
[9] = Antitumor activity against human MDA-MB-231met2 cells xenografted in athymic nude mouse assessed as tumor volume at 30 mg/kg, bid administered via oral gavage for 22 days relative to control; type: functional
Mus musculus [10] = assay: In vivo inhibition of AICARFT in tumor of athymic nude mouse xenografted with human MDA-MB-231met2 cells assessed as increase in ZMP levels at 30 mg/kg, bid administered via oral gavage for 22 days relative to control; type: functional

CYP2D6, sequence (P10635 whole entry): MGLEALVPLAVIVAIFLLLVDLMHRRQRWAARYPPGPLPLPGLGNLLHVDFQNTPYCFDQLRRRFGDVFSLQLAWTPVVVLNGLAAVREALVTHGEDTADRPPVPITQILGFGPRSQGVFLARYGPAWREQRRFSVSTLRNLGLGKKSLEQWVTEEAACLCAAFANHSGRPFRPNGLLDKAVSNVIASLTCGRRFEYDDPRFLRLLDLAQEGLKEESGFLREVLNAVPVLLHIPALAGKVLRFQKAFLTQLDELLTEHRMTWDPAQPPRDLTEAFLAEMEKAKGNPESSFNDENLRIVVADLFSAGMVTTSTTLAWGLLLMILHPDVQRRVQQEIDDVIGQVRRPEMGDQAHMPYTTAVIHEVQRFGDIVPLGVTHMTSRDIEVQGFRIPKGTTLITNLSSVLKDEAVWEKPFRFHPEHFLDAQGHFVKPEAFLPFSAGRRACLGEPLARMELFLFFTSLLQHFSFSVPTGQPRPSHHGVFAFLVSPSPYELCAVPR
CYP2C9, sequence (P11712 whole entry): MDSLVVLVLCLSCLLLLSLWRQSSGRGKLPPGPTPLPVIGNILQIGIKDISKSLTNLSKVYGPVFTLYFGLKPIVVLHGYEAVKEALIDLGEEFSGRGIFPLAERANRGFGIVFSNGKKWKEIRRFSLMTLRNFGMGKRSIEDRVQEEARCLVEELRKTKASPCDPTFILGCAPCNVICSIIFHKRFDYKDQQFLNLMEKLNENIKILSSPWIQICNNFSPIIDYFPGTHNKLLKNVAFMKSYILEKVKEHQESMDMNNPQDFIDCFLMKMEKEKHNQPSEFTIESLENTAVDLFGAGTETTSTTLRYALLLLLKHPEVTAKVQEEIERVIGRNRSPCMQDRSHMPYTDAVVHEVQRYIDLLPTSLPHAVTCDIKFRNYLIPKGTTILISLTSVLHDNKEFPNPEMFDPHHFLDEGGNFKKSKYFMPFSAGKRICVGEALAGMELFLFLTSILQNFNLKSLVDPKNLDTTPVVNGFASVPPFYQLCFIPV
CYP3A4, sequence (P08684 whole entry): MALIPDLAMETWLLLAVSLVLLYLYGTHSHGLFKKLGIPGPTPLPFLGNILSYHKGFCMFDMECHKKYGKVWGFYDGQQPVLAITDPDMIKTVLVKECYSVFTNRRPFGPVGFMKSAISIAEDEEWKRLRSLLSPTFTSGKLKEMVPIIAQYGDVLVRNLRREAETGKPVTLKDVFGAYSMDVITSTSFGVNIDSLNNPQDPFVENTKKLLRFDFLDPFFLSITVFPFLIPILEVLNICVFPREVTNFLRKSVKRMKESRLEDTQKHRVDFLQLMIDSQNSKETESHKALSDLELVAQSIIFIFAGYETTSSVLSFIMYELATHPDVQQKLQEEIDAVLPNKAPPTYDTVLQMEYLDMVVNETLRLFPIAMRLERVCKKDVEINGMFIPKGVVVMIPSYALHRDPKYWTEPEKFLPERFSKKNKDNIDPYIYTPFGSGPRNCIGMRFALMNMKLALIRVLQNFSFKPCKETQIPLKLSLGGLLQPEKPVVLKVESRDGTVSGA

O=c1[nH]ccc2cc(F)c(NS(=O)(=O)c3ccc(N4CC[C@@H](O)C4)s3)cc12
solubility thermodynamic at 20 h [1]: 0.02 mg/mL (≈ 48.8 µM) | bioavailability [2]: 25% | GI50 (MDA-MB-231): 0.044 µM | fCmax (Mus musculus [3]): 289 nM | fold change (FC) (Mus musculus [4]): 80 | pIC50 [5]: < 4.00 | pIC50 [6]: < 4.00 | metabolised [7]: < 10% | inhibition at 10 µM (CYP3A4): < 10% | inhibition at 10 µM (CYP2D6): < 10% | inhibition at 10 µM (CYP2C9): < 10% | pIC50 [8]: 7.07 | Activity [9]: 16% | fold change (FC) (Mus musculus [10]): 10

— ChEMBL document CHEMBL4020815 (J Med Chem, 2017)
